The text below walks through data of article PMC5664379 (2017).

The subject of the test is G4 DNA [(CG3)2CGC(AG3)2G] (DNA, G4) CGGGCGGGCGCAGGGAGGGG
In words: UV-vis mole-ratio titration, global fit. The conditions noted are these: buffer pH 7.1, 25 °C; intrinsic, two equivalent anticooperative sites, ω 0.43; stepwise fit equally good: 7.07, 5.79.

Structures are written as SMILES.

For `C[n+]1ccc(-c2c3nc(c(-c4cc[n+](C)cc4)c4ccc([nH]4)c(-c4cc[n+](C)cc4)c4nc(c(-c5cc[n+](C)cc5)c5ccc2[nH]5)C=C4)C=C3)cc1`, the “lg K1-2” value is on record as 6.79.
